Laboratory results published in patent US12173088B2, “Anti-microbial peptides” (priority 2018, dated 2024).
Converted amounts (≈) assume the structure as drawn. Like-named read-outs stand apart in the source and are kept apart here. Peptide text beside a SMILES is read from it.

Experiments:
K. pneumoniae E406-17 = assay: microbe, parasite or virus in culture; format: cell-based, Klebsiella pneumoniae
Outline: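 Broth microdilution in tryptic soy broth: log-phase cultures (OD600 ≈0.5) diluted to OD600 0.001, given two-fold peptide dilutions, incubated overnight at 37° C. Growth read at 630 nm.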

Hemolytic assay = format: cell-based, human; conditions: human
Outline: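 Washed hRBCs (2% v/v) exposed to peptide for 1 h at 37 °C, then centrifuged and hemoglobin in supernatant read at 545 nm. Lysis normalized to Triton X-100 (2% or 1%; 100%) and PBS (0%); HL50 is the peptide concentration giving 50% lysis, and CSI is HL50/MIC.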

[1] = In vivo toxicity after i.p. injection; parameters: species or system mice; conditions: for Animal death: 10, 20, and 30 mg/kg i.p., five-day experiment; for Mobility: higher peptide doses
Procedure: Because DFT561 had crossed multiple in vitro barriers (Table 5), its in vivo toxicity and efficacy was tested. A well-established neutropenic mouse model was used, which is often utilized to evaluate the efficacy of antibiotics and peptide mimics (Ambrose, et al. (2012) Clin. Infect. Dis., 54(3):S220-8; Radzishevsky, et al. (2007) Nat. Biotechnol., 25:657-659). In this model, the effect of immune cells on bacterial killing is minimized via two injections of cyclophosphamide before infection (FIG. 5). To evaluate the safety of the peptide in vivo, the toxicity of DFT561 injected intraperitoneally (i.p.) was compared at […] per mouse. […] In addition, alanine transaminase normally resides in serum and tissues but can be released after liver injury. Differences in a quantitative alanine transaminase assay of liver homogenates from mice treated at 0, 10, and 20 mg/kg was not observed.
Neutropenic mice are widely accepted for systemic efficacy evaluation of antibiotics (Zhao, et al. (2016) Bioorg. Med. Chem. 24:6390-6400; Craig, et al. (1991) J. Antimicrob. Chemother., 27:29-40). This model enables better evaluation of compound potency by minimizing the bacterial clearance effect of the immune system. Using this model, the efficacy of horine against S. aureus USA300 and verine against K. pneumonia E406-17 was tested. C57BL/6 mice were made neutropenic by two injections of cyclophosphamide intraperitoneally (i.p.). The acute toxicity of horine and verine was investigated by i.p. injecting them into mice at 10, 20, and 30 mg/kg body weight.

E. faecium V286-17 (VRE) = assay: microbe, parasite or virus in culture; format: cell-based, Enterococcus faecium
Outline: (§1)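 Broth microdilution: log-phase cultures in tryptic soy broth diluted to OD600 0.001, exposed to two-fold diluted peptides at 37° C overnight, growth read at 630 nm. Medium effects on S. aureus USA300 tested with up to 200 mM NaCl, 2 mM CaCl2, 5-10% human serum, mouse plasma, fluids or tissue homogenate supernatants.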

S. aureus USA300 = assay: microbe, parasite or virus in culture; format: cell-based, Staphylococcus aureus
Outline: as §1

S. aureus M838-17 (MRSA) = assay: microbe, parasite or virus in culture; format: cell-based, Staphylococcus aureus; conditions: for MIC: read-out: MIC S. aureus M838-17 (MRSA)
Outline: as §1

A. baumannii B26-16 = assay: microbe, parasite or virus in culture; format: cell-based, Acinetobacter baumannii
Outline: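 Broth microdilution in tryptic soy broth: log-phase cultures diluted to 0.001 OD600 and exposed to peptide dilutions overnight at 37 °C, growth read at 630 nm. For S. aureus USA300, medium effects tested at pH 6.8, 7.2 and 8.0, with 150 mM NaCl, or with 5–10% human serum, mouse plasma or peritoneal fluid.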

[2] = E406-17, read-out: MIC K. pneumoniae E406-17

In the case of `CC(C)C[C@H](NC(=O)[C@H](CC(C)C)NC(=O)[C@H](CCCCN)NC(=O)[C@H](CC(C)C)NC(=O)CNC(=O)[C@H](CC(C)C)NC(=O)[C@H](CO)NC(=O)[C@H](CC(C)C)NC(=O)[C@H](CC(C)C)NC(=O)[C@H](CC(C)C)NC(=O)[C@H](CCCCN)NC(=O)[C@H](CC(C)C)NC(=O)CN)C(N)=O` [DFT561, GLKLLLSLGLKLL] (H-GLKLLLSLGLKLL-NH2; N-terminus and C-terminus assumed), the MIC (K. pneumoniae E406-17; [2]) is reported as >50 µM, the HC50 at 1 h (Hemolytic assay; human red blood cells, 2% (v/v)) is reported as > 300 µM and the “Differences in alanine transaminase assay of liver homogenates” value ([1]; 0, 10, and 20 mg/kg) is reported as “not observed”. The “Toxicity (conclusion)” value ([1]; 5 mg/kg) was “not toxic”, the Behaviour of mice ([1]; 10 mg/kg i.p.) was “behaved normal” and the Weight losses ([1]; 10, 20, 40 mg/kg i.p.) was “statistically insignificant”. The Behaviour of mice ([1]; 20 or 40 mg/kg i.p.) was “reduced activity for 30 minutes”, the “MIC E. faecium V286-17 (VRE)” value (E. faecium V286-17 (VRE); V286-17 (VRE)) was 3.1 to 6.25 µM and the MIC (S. aureus USA300; USA300) was 1.6 µM (≈ 2.21 µg/mL). The “MIC SA (S. aureus USA300)” value (S. aureus USA300; USA300) was 1.6 µM (≈ 2.21 µg/mL), the MIC (S. aureus USA300; USA300, pH 6.8) was 3.1 µM (≈ 4.28 µg/mL) and the MIC (S. aureus USA300; USA300, pH 7.4) was 1.6 µM (≈ 2.21 µg/mL). It also gave an MIC (S. aureus USA300; USA300, pH 8) of 1.6 µM (≈ 2.21 µg/mL) and an MIC (S. aureus M838-17 (MRSA); M838-17) of 3.1 µM (≈ 4.28 µg/mL).

For `CC(C)C[C@H](NC(=O)[C@H](Cc1c[nH]c2ccccc12)NC(=O)[C@H](Cc1c[nH]c2ccccc12)NC(=O)[C@@H](N)Cc1c[nH]c2ccccc12)C(=O)N[C@@H](CCCNC(=N)N)C(=O)N[C@@H](CCCNC(=N)N)C(=O)N[C@@H](CCCNC(=N)N)C(=O)N[C@@H](Cc1c[nH]c2ccccc12)C(N)=O` [Horine, WWWLRRRW] (H-WWWLRRRW-NH2; N-terminus and C-terminus assumed), the MIC (K. pneumoniae E406-17; [2]) was >32 µM, the HC50 at 1 hour (Hemolytic assay) was > 200 µM and the Animal death [1] was “no animal death”. For the same molecule, the Mobility [1] was “initial short-term reduced mobility”, the MIC (E. faecium V286-17 (VRE); V286-17 (VRE), read-out: MIC E. faecium V286-17 (VRE)) was 2 µM (≈ 2.69 µg/mL) and the MIC (A. baumannii B26-16; B26-16, read-out: MIC A. baumannii B26-16) was 32 µM (≈ 43 µg/mL). For the same molecule, the MIC (S. aureus USA300; USA300, read-out: MIC S. aureus USA300 (MRSA)) was 4 µM (≈ 5.37 µg/mL).

For `CN[C@H](CC(C)C)C(=O)N[C@H]1C(=O)N[C@@H](CC(N)=O)C(=O)N[C@H]2C(=O)N[C@H]3C(=O)N[C@H](C(=O)N[C@H](C(=O)O)c4cc(O)cc(O)c4-c4cc3ccc4O)[C@H](O)c3ccc(c(Cl)c3)Oc3cc2cc(c3O[C@@H]2O[C@H](CO)[C@@H](O)[C@H](O)[C@H]2O[C@H]2C[C@](C)(N)[C@H](O)[C@H](C)O2)Oc2ccc(cc2Cl)[C@H]1O` [Vancomycin], the MIC (K. pneumoniae E406-17; Klebsiella pneumoniae, E40617, read-out: MIC K. pneumoniae E406-17) was > 8 µM, the MIC (E. faecium V286-17 (VRE); Enterococcus faecium, VRE, read-out: MIC E. faecium V286-17 (VRE), Table 7) was ≥ 12.5 µM and the MIC (E. faecium V286-17 (VRE); Enterococcus faecium, VRE, read-out: MIC E. faecium V286-17 (VRE), Table 14) was > 8 µM. The MIC (A. baumannii B26-16; Acinetobacter baumannii, B2616, read-out: MIC A. baumannii B26-16) was > 8 µM, the MIC (S. aureus USA300; Staphylococcus aureus, MRSA / USA300, read-out: MIC S. aureus USA300 (MRSA)) was 1 µM (≈ 1.45 µg/mL) and the MIC (S. aureus M838-17 (MRSA); Staphylococcus aureus, MRSA) was 0.78 µM (≈ 1.13 µg/mL).

For `CC(C)[C@H](NC(=O)[C@H](Cc1c[nH]c2ccccc12)NC(=O)[C@H](Cc1c[nH]c2ccccc12)NC(=O)[C@H](Cc1c[nH]c2ccccc12)NC(=O)[C@H](Cc1c[nH]c2ccccc12)NC(=O)[C@H](CCCNC(=N)N)NC(=O)[C@H](CCCNC(=N)N)NC(=O)[C@@H](N)CCCNC(=N)N)C(N)=O` [Verine, RRRWWWWV] (H-RRRWWWWV-NH2; N-terminus and C-terminus assumed), the “MIC K. pneumonia 406-17” value (K. pneumoniae E406-17; Table 12) was 6.25 µM (≈ 8.31 µg/mL), the MIC (K. pneumoniae E406-17; Table 14, read-out: MIC K. pneumoniae E406-17) was 8 µM (≈ 10.6 µg/mL) and the HC50 at 1 hour (Hemolytic assay; 2% hRBCs, read-out: LC50) was > 200 µM. The Animal death [1] was “no animal death”, the Mobility [1] was “initial short-term reduced mobility” and the MIC (E. faecium V286-17 (VRE); Table 14, read-out: MIC E. faecium V286-17 (VRE)) was 2 µM (≈ 2.66 µg/mL). The MIC (A. baumannii B26-16; Table 14, read-out: MIC A. baumannii B26-16) was 8 µM (≈ 10.6 µg/mL), the “MIC S. aureus USA300 (MRSA)” value (S. aureus USA300; Table 14) was 2 to 4 µM and the MIC (S. aureus USA300; Table 17, strain USA300) was 2 to 4 µM. The “MIC S. aureus M838-17” value (S. aureus M838-17 (MRSA); Table 12) was 3.1 µM (≈ 4.12 µg/mL).
